The target of data set [1] is T1, Orexin/Hypocretin receptor type 1 (Homo sapiens, UniProt O43613).
T1 sequence (O43613 whole entry): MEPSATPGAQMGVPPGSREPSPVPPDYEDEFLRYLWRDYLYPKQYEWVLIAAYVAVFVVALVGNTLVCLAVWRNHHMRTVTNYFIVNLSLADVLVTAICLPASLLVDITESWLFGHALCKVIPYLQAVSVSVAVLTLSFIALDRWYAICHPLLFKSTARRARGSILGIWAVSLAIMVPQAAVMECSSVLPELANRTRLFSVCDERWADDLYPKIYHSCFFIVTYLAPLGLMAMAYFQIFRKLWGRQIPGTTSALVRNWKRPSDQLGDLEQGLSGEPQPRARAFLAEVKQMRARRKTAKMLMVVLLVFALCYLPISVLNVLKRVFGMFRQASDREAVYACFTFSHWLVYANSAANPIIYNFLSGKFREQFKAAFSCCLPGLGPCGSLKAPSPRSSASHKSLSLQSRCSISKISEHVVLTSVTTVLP
Put plainly: Antagonist activity at OX1 receptor expressed in RD-HGA16 cells assessed as inhibition of orexin A-induced intracellular calcium mobilization after 15 mins by FLIPR assay. Format: functional, cell-based. For orientation: Calcium assays in cells follow changes in intracellular calcium, usually with a dye or a luminescent sensor.

Data set [2] relates to Rattus norvegicus. Put plainly: Antagonist activity at OX1 receptor in rat assessed as decrease in alcoholic response at 20 mg/kg, ip after 30 mins. In kind it is functional. Set-up: scale not given: the % may be the effect or the level left. The following applies: route intraperitoneal.
Data set [3] deals with Rattus norvegicus. Put plainly: Antagonist activity at OX1 receptor in rat assessed as decrease in alcoholic response at 5 mg/kg, ip. Set-up: scale not given: the % may be the effect or the level left. The following applies: route intraperitoneal. Format: functional.
The nature of data set [4]: Chemical stability of the compound as refrigerated solution in 100 % DMSO stored in teflon sealed container up to 3 months by NMR analysis. In kind it is physicochemical.
Data set [5] in a line: Solubility of the compound in DMSO at 7.5 mg at room temperature after 15 mins by sonication method in presence of encapsin. Format: physicochemical. The settings on record: in vivo, 0.25 h.
Data set [6] can be described thus: Solubility of the compound in ACSF at 1.6 mg at room temperature after 45 mins by sonication method. In kind it is physicochemical. The settings on record: in vivo, 0.75 h.
A short description of data set [7]: Chemical stability of the compound stored under argon in tightly sealed amber bottle at 15 degC assessed as 1-(2-hydroxy-4-{[(1,5-naphthyridin-4-yl)carbamoyl]amino} phenyl)acetamide formation after 10 months by NMR analysis. Format: physicochemical. The settings on record: 7305 h.
Data set [8] is described as follows: Chemical stability of the compound stored under argon in tightly sealed amber bottle at 15 degC assessed as 1-(2-hydroxy-4-{[(1,5-naphthyridin-4-yl)carbamoyl]amino} phenyl)acetamide formation after 10 months by mass spectrometry analysis. In kind it is physicochemical. The following applies: 7305 h.

Results on three compounds are retold here after ChEMBL document CHEMBL2157946, “Hydrolytic instability of the important orexin 1 receptor antagonist SB-334867: possible confounding effects on in vivo and in vitro studies” (Bioorg Med Chem Lett, 2012).

Consider `CC(=O)Nc1ccc(NC(=O)Nc2ccnc3cccnc23)cc1O`, for which the concentration for half-maximal inhibition (IC50) – broadly, the concentration at which inhibition is half-maximal – in data set [1] is over 30 µM.
Regarding `Cc1nc2ccc(NC(=O)Nc3ccnc4cccnc34)cc2o1`, the Activity is listed as 50% in the data set on Rattus norvegicus [2] and 75% with Rattus norvegicus [3]. In addition, the Stability entry in data set [4] was “Stable”. Moreover, the solubility entry in data set [5] and in data set [6] was “Insoluble” each time.
For the compound `Cc1nc2ccc(NC(=O)Nc3ccnc4cccnc34)cc2o1.Cl`, the Stability result in data set [7] and in data set [8] was “Unstable” in each case.
